Two molecules from patent US20240252456A1, “ORAL COMPOSITION, SKIN COSMETIC AND HAIR COSMETIC” (MARUZEN PHARMACEUTICALS CO., LTD., priority 2021, published 2024) can be followed below.

Molecules are shown by their SMILES.

Assay [1] has as its system Rat basophil leukemia cells (RBL-2H3). As to the kind of experiment: Hexosaminidase release suppressive action test. The class given is cell-based. The settings on record: 500 μmol/L; RBL-2H3, DNP-specific IgE / DNP-BSA. The protocol: Rat basophil leukemia cells (RBL-2H3) were cultured using spinner modified Eagle's minimum essential medium (S-MEM) containing 15% FBS, and then the cells were collected by a trypsin treatment. The collected cells were diluted with S-MEM containing 15% FBS to a cell density of […], DNP-specific IgE was added to a final concentration of 0.5 μg/mL, and the cells were seeded with 100 μL per well in a 96-well plate and cultured overnight.
After culturing, the medium was removed and the cells were washed twice with 100 μL of Shiraganian buffer solution. […]
After the reaction was completed, 250 μL of 0.1 mol/L Na2CO3/NaHCO3 was added to each well, the absorbance at wavelengths of 415 nm and 650 nm was measured, and the value obtained by subtracting the absorbance at 650 nm from the absorbance at 415 nm was adopted as the corrected value. From the obtained measurement results, the hexosaminidase release suppression rate (%) was calculated using the following equation.
Terms in the equation represent the following respective ones. • A: Absorbance at wavelength 415-650 nm without sample addition • B: Absorbance at wavelength 415-650 nm with test sample addition

In assay [2] the test system is Normal human neonatal epidermal keratinocytes (NHEK). Put plainly: Epidermal keratinocyte proliferation promotive action test (MTT). The format is cell-based. The settings on record: 3 days, A/B×100 vs no sample. The protocol: Normal human neonatal epidermal keratinocytes (NHEK) were cultured using normal human epidermal keratinocyte growth medium (KGM), and then the cells were collected by a trypsin treatment. The collected cells were diluted with KGM to a cell density of 3.0×10^4 cells/mL, then seeded with 100 μL per well on a collagen-coated 96-well plate, and cultured overnight. After the culturing was completed, 100 μL of the test sample (Sample 1, see Table 12 below for the final concentration) dissolved in KGM was added to each well, and culturing was performed for 3 days. As a control, culturing was performed in the same manner using KGM to which no sample was added.
The epidermal keratinocyte proliferation promotive action was measured using the MTT assay method. After culturing for 3 days, the medium was removed, and 100 μL of MTT dissolved at a final concentration of 0.4 mg/mL in PBS(−) buffer solution was added to each well. […] After extraction, the absorbance at a wavelength of 570 nm was measured. At the same time, the absorbance at a wavelength of 650 nm was measured as turbidity, and the difference between the two was determined as the production amount of blue formazan. From the obtained results, the epidermal keratinocyte proliferation promotion rate (%) was calculated using the following equation. […]

In the next assay the test system is CLDN4 mRNA. Put plainly: Claudin-4 (CLDN4) mRNA expression promotive action test. The format is cell-based, human. Particulars: 100 μmol/L; NHEK, 24 hours, corrected with GAPDH. The protocol: Normal human neonatal epidermal keratinocytes (NHEK) were precultured using normal human epidermal keratinocyte growth medium (KGM), and the cells were collected by a trypsin treatment. The collected cells were diluted with KGM to a cell density of 15×10^4 cells/mL, then seeded with 2 mL portions in a 6-well plate (30×10^4 cells/well), and cultured overnight under conditions of 37° C. and 5% CO2. After culturing, the medium was replaced with normal human epidermal keratinocyte basal medium (KBM, the above KGM without addition of growth additives (hEGF, BPE, insulin, antibacterial agents, hydrocortisone)), and culturing was further performed for 24 hours.
After culturing for 24 hours, the medium was removed, and 2 mL of the test sample (Sample 1, see Table 20 below for final concentrations) dissolved in KBM was added to each well, and culturing was performed under conditions of 37° C. and 5% CO2 for 24 hours. As a control, culturing was performed in the same manner using KBM to which no sample was added. After culturing, the medium was removed, total RNA was extracted using ISOGEN II (available from NIPPON GENE CO., LTD.), each RNA amount was measured using a spectrophotometer, and the total RNA was prepared so as to be 150 ng/μL.
For CLDN4 and GAPDH as an internal standard, the expression levels of mRNA were measured using the above total RNA as a template. […]

In assay [3] the test system is Normal human dermal fibroblasts (NB1RGB). As to the kind of experiment: Type I collagen production promotive action test. The format is cell-based. The settings on record: 3 days, A/B×100 vs no sample. The protocol:
Normal human dermal fibroblasts (NB1RGB) were cultured using Dulbecco's modified Eagle's medium (DMEM) containing 10% FBS, and then the cells were collected by a trypsin treatment. The collected cells were diluted with DMEM containing 0.25% FBS to a cell density of 1.6×10^5 cells/mL, then seeded with 100 μL per well in a 96-well microplate, and cultured overnight.
After the culturing was completed, 100 μL of the test sample (Sample 1, see Table 6 below for final concentration) dissolved in DMEM containing 0.25% FBS was added to each well, and culturing was performed for 3 days. As a control, culturing was performed in the same manner using DMEM containing 0.25% FBS to which no sample was added. After culturing, the amount of type I collagen in the medium of each well was measured by ELISA method. From the measurement results, the type I collagen production promotion rate (%) was calculated using the following equation.
Type I collagen production promotion rate (%)=A/B×100
Terms in the equation represent the following respective ones. • A: Type I collagen amount with test sample addition • B: Type I collagen amount without sample addition

Regarding `O=C(O)CCc1ccc(O)cc1` [Sample 2, 3-(4-Hydroxyphenyl)propionic acid], in assay [1], the “Hexosaminidase release suppression rate” value turned out to be 19.3%.
As for `O=C(O)CCc1ccc(O)c(O)c1` [Sample 1, 3,4-Dihydroxyhydrocinnamic acid], the entries for the “Epidermal keratinocyte proliferation promotion rate” value in assay [2] (25 μmol/L) and in assay [2] (100 μmol/L) were 138.3% and 152.1%, respectively. Besides, in the assay on CLDN4 mRNA, the “CLDN4 mRNA expression promotion rate” value turned out to be 489.7%. For the same molecule, the “Type I collagen production promotion rate” value in assay [3] (15.6 μmol/L) was 107.4%; in assay [3] (62.5 μmol/L) it was 112.8%.
